Literature values as cited in PMC4942611, “Promising Tools in Prostate Cancer Research: Selective Non-Steroidal Cytochrome P450 17A1 Inhibitors” (Scientific Reports, 2016).
Where two headings read alike, the source gives them in different places.

Test system: CYP17A1
Parameters: method as in PMID 24775307
Details: cited from earlier work

Q: Which IC50 (read-out: IC50 hydroxylase step) does the source give for CC(C)[C@](O)(c1ccc2cc(OC(F)F)c(OC(F)F)cc2c1)c1c[nH]nn1 [VT-464] here?
A: 670 nM

Q: And the IC50 (read-out: IC50 lyase step)?
A: 69 nM
